In patent publication US10294202B2, “Pyrrolidinones as herbicides” (FMC Corporation, priority 2013, dated 2019):
Where two headings read alike, the source gives them in different places.

Key:
morningglory = test: Test A pre-/postemergence herbicide test; assay type: in vivo, Ipomoea spp.; conditions: for Morningglory plant response rating: Preemergence, visual rating on 0 to 100 scale (0 no effect, 100 complete control)
Method in brief: (§1)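 Approximately 10 days after treatment in the greenhouse, plants were compared with untreated controls and given a 0–100 visual injury rating. Applications: preemergence directed soil spray; postemergence on 2–10 cm plants at the one- to two-leaf stage.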

crabgrass, large = test: Test A pre-/postemergence herbicide test; assay type: in vivo, Digitaria sanguinalis; conditions: for Crabgrass, Large plant response rating: Preemergence, visual rating on 0 to 100 scale (0 no effect, 100 complete control)
Method in brief: as §1

kochia [1] = test: Test C pre-/postemergence herbicide test; assay type: in vivo, Kochia scoparia
Source text: Seeds of plant species selected from blackgrass (Alopecurus myosuroides), ryegrass, Italian (Italian ryegrass, Lolium multiflorum), wheat (winter wheat, Triticum aestivum), galium (catchweed bedstraw, Galium aparine), corn (Zea mays), crabgrass, large (large crabgrass, Digitaria sanguinalis), foxtail, giant (giant foxtail, Setaria faberii), johnsongrass (Sorghum halepense), lambsquarters (Chenopodium album), morningglory (Ipomoea coccinea), nutsedge, yellow (yellow nutsedge, Cyperus esculentus), pigweed (Amaranthus retroflexus), ragweed (common ragweed, Ambrosia elatior), soybean (Glycine max), barnyardgrass (Echinochloa crus-galli), oilseed rape (Brassica napus), waterhemp (common waterhemp, Amaranthus rudis), kochia (Kochia scoparia), oat, wild (wild oat, Avena fatua), surinam grass (Brachiaria decumbens), foxtail, green (green foxtail, Setaria viridis), goosegrass (Eleusine indica), bromegrass, downy (downy bromegrass, Bromus tectorum), nightshade (eastern black nightshade, Solanum ptycanthum), cocklebur (common cocklebur, Xanthium strumarium), cupgrass, woolly (woolly cupgrass, Eriochloa villosa), bermudagrass (Cynodon dactylon), sunflower, (common oilseed sunflower, Helianthus annuus), Russian thistle (Salsola kali) and velvetleaf (Abutilon theophrasti) were planted into a blend of loam soil and sand and treated preemergence with test chemicals formulated in a non-phytotoxic solvent mixture which included a surfactant. At the same time, plants selected from these crop and weed species and also barley (winter barley, Hordeum vulgare), […]), chickweed (common chickweed, Stellaria media), deadnettle (henbit deadnettle, Lamium amplexicaule), and canarygrass (littleseed canarygrass, Phalaris minor) were planted in pots containing Redi-Earth® planting medium (Scotts Company, 14111 Scottslawn Road, Marysville, Ohio 43041) comprising spaghnum peat moss, vermiculite, wetting agent and starter nutrients and treated with postemergence applications of test chemicals formulated in the same manner. Plants ranged in height from 2 to 18 cm (1- to 4-leaf stage) for postemergence treatments. Treated plants and controls were maintained in a greenhouse for 13 to 15 days, after which time all species were compared to controls and visually evaluated. Plant response ratings, summarized in Table C, are based on a scale of 0 to 100 where 0 is no effect and 100 is complete control. A dash (-) response means no test result.

galium = test: Test A postemergence herbicide test; assay type: in vivo, Galium aparine
Method in brief: (§2)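 Visual injury rating, 0 (no effect) to 100 (complete control), versus untreated controls ~10 days after treatment. Postemergence spray applied at one- to two-leaf stage, plants 2–10 cm tall, potted in loam soil/sand. Greenhouse-held.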

blackgrass = test: Test A postemergence herbicide test; assay type: in vivo, Alopecurus myosuroides
Method in brief: as §2

kochia [2] = test: Test A pre-/postemergence herbicide test; assay type: in vivo, Kochia scoparia
Method in brief: as §1

[3] = Postemergence, 1000 g ai/ha, 0 to 100 scale (0 no effect, 100 complete control)
[4] = preemergence, 1000 g ai/ha, 0 to 100 scale
[5] = Postemergence, 31 g ai/ha, scale 0 (no effect) to 100 (complete control)
[6] = Postemergence, 62 g ai/ha, scale 0 to 100 (0 no effect, 100 complete control)
[7] = Postemergence, 125 g ai/ha, scale 0 to 100 (0 no effect, 100 complete control)
[8] = Postemergence, 250 g ai/ha, scale 0 to 100 (0 no effect, 100 complete control)
[9] = 125 g ai/ha, 0 to 100 scale, 0 no effect, 100 complete control
[10] = 500 g ai/ha, 0 to 100 scale (0 no effect, 100 complete control)
[11] = Postemergence, 125 g ai/ha, 0 to 100 scale, 0 no effect, 100 complete control
[12] = Postemergence, 500 g ai/ha, 0 to 100 scale (0 no effect, 100 complete control)
[13] = preemergence, 500 g ai/ha, 0 to 100 scale
[14] = 125 g ai/ha, 0 to 100 scale, 0 is no effect, 100 is complete control
[15] = Preemergence, 62 g ai/ha, scale 0 to 100
[16] = Preemergence, 125 g ai/ha, scale 0 to 100 (0 no effect, 100 complete control)

Cc1c(F)cccc1NC(=O)C1C(=O)NCC1c1ccc(F)c(F)c1 (racemic) [Compound 106]
Plant response rating, Morningglory (morningglory; [3]): 20
Plant response rating, Morningglory (morningglory; [4]): 0
Plant response rating, Crabgrass, Large (crabgrass, large; [3]): 90
Plant response rating, Crabgrass, Large (crabgrass, large; [4]): 90
Plant response rating, Kochia (kochia [1]; [5]): 0
Plant response rating, Kochia (kochia [1]; [6]): 40
Plant response rating, Kochia (kochia [1]; [7]): 30
Plant response rating, Kochia (kochia [1]; [8]): 35

Cc1ccccc1NC(=O)C1C(=O)NCC1c1cccc(C(F)(F)F)c1 (racemic) [Compound 109]
Plant response rating, Galium (galium; [9]): 30
Plant response rating, Galium (galium; [10]): 60
Plant response rating, Blackgrass (blackgrass; [9]): 50
Plant response rating, Blackgrass (blackgrass; [10]): 80
Plant response rating, Kochia (kochia [2]; [11]): 0
Plant response rating, Kochia (kochia [2]; [12]): 0
Kochia plant response rating (kochia [2]; Preemergence, 125 g ai/ha, visual rating on 0 to 100 scale (0 no effect, 100 complete control)): 0
Plant response rating, Kochia (kochia [2]; [13]): 0
Plant response rating, Kochia (kochia [1]; [5]): 0
Plant response rating, Kochia (kochia [1]; [6]): 0
Plant response rating, Kochia (kochia [1]; [7]): 0
Plant response rating, Kochia (kochia [1]; [8]): 0

O=C1NCC(c2ccc(C(F)(F)F)cc2)C1C(=O)Nc1cccc(F)c1F (racemic) [Compound 202]
Plant response rating, Galium (galium; [14]): 60
Galium plant response rating (0 to 100 scale, 0 is no effect, 100 is complete control) (galium; 500 g ai/ha): 60
Plant response rating, Blackgrass (blackgrass; [14]): 50
Blackgrass plant response rating (0 to 100 scale, 0 is no effect, 100 is complete control) (blackgrass; 500 g ai/ha): 50
Plant response rating, Kochia (kochia [2]; 125 g ai/ha, visual rating, 0 to 100 scale, 0 no effect, 100 complete control, approximately 10 days, preemergence): 70
Plant response rating, Kochia (kochia [2]; Postemergence, 125 g ai/ha, 0 to 100 scale, 0 is no effect, 100 is complete control): 80
Kochia plant response rating (0 to 100 scale, 0 is no effect, 100 is complete control) (kochia [2]; Postemergence, 500 g ai/ha): 90
Plant response rating, Kochia (kochia [2]; preemergence, 500 g ai/ha, 0 to 100 scale, 0 is no effect and 100 is complete control): 80
Plant response rating, Kochia (kochia [1]; Postemergence, 31 g ai/ha, scale 0 to 100 (0 no effect, 100 complete control)): 70
Plant response rating, Kochia (kochia [1]; Postemergence, 62 g ai/ha, scale 0 (no effect) to 100 (complete control)): 75
Plant response rating, Kochia (kochia [1]; [7]): 80
Plant response rating, Kochia (kochia [1]; [8]): 80

O=C1NCC(c2cc(F)c(F)c(F)c2)C1C(=O)Nc1cccc(F)c1F (centres unmarked) [Compound 48]
Plant response rating, Morningglory (morningglory; [11]): 0
Plant response rating, Morningglory (morningglory; [12]): 20
Morningglory plant response rating (morningglory; 125 g ai/ha): 0
Plant response rating, Morningglory (morningglory; [13]): 0
Plant response rating, Crabgrass, Large (crabgrass, large; [11]): 80
Plant response rating, Crabgrass, Large (crabgrass, large; [12]): 80
Crabgrass, Large plant response rating (crabgrass, large; 125 g ai/ha): 90
Plant response rating, Crabgrass, Large (crabgrass, large; [13]): 90
Plant response rating, Kochia (kochia [1]; Postemergence, 16 g ai/ha, scale 0 to 100 (0 no effect, 100 complete control)): 0
Plant response rating, Kochia (kochia [1]; [5]): 10
Plant response rating, Kochia (kochia [1]; [6]): 10
Plant response rating, Kochia (kochia [1]; [7]): 20
Plant response rating, Kochia (kochia [1]; [15]): 10
Plant response rating, Kochia (kochia [1]; [16]): 10
Plant response rating, Kochia (kochia [1]; Preemergence, 16 g ai/ha, scale 0 to 100): 0

O=C1NCC(c2cc(F)c(F)cc2F)C1C(=O)Nc1cccc(F)c1F (centres unmarked) [Compound 50]
Plant response rating, Morningglory (morningglory; [11]): 0
Plant response rating, Morningglory (morningglory; [12]): 0
Morningglory plant response rating (morningglory; 125 g ai/ha): 0
Plant response rating, Morningglory (morningglory; [13]): 0
Plant response rating, Crabgrass, Large (crabgrass, large; [11]): 80
Plant response rating, Crabgrass, Large (crabgrass, large; [12]): 80
Crabgrass, Large plant response rating (crabgrass, large; 125 g ai/ha): 90
Plant response rating, Crabgrass, Large (crabgrass, large; [13]): 90
Plant response rating, Kochia (kochia [1]; [5]): 0
Plant response rating, Kochia (kochia [1]; [6]): 0
Plant response rating, Kochia (kochia [1]; [7]): 0
Plant response rating, Kochia (kochia [1]; [8]): 0

O=C1NCC(c2ccc(F)c(Cl)c2)C1C(=O)Nc1ccccc1F (centres unmarked) [Compound 60]
Plant response rating, Morningglory (morningglory; [11]): 0
Plant response rating, Morningglory (morningglory; [12]): 0
Morningglory plant response rating (morningglory; 125 g ai/ha): 0
Plant response rating, Morningglory (morningglory; [13]): 0
Plant response rating, Crabgrass, Large (crabgrass, large; [11]): 80
Plant response rating, Crabgrass, Large (crabgrass, large; [12]): 90
Crabgrass, Large plant response rating (crabgrass, large; 125 g ai/ha): 90
Plant response rating, Crabgrass, Large (crabgrass, large; [13]): 90
Plant response rating, Kochia (kochia [1]; [5]): 0
Plant response rating, Kochia (kochia [1]; [6]): 10
Plant response rating, Kochia (kochia [1]; [7]): 45
Plant response rating, Kochia (kochia [1]; [15]): 0
Plant response rating, Kochia (kochia [1]; [16]): 0

O=C1NCC(c2cccc(OC(F)(F)F)c2)C1C(=O)Nc1ccccc1F (centres unmarked) [Compound 69]
Plant response rating, Morningglory (morningglory; [11]): 0
Plant response rating, Morningglory (morningglory; [12]): 0
Morningglory plant response rating (morningglory; 125 g ai/ha): 0
Plant response rating, Morningglory (morningglory; [13]): 0
Plant response rating, Crabgrass, Large (crabgrass, large; [11]): 70
Plant response rating, Crabgrass, Large (crabgrass, large; [12]): 90
Crabgrass, Large plant response rating (crabgrass, large; 125 g ai/ha): 90
Plant response rating, Crabgrass, Large (crabgrass, large; [13]): 90
Kochia plant response rating (kochia [1]; Preemergence, 31 g ai/ha, scale 0 to 100, 0 is no effect and 100 is complete control): 0
Plant response rating, Kochia (kochia [1]; [15]): 0
Plant response rating, Kochia (kochia [1]; [16]): 0
Plant response rating (scale of 0 to 100), Kochia (kochia [1]; Preemergence, 250 g ai/ha): 25

O=C1NCC(c2ccc(C(F)(F)F)cc2)C1C(=O)Nc1ccccc1F (centres unmarked) [Compound 79, N-(2-fluorophenyl)-2-oxo-4-[4-(trifluoromethyl)phenyl]-3-pyrrolidinecarboxamide]
pest or weed control at 125 g/ha (morningglory; Ipomoea, post-emergence, 240 h, Postemergence, 125 g ai/ha, 0 to 100 scale, 0 no effect, 100 complete control, read-out: Plant response rating, Morningglory): 0%
pest or weed control at 500 g/ha (morningglory; Ipomoea, post-emergence, 240 h, Postemergence, 500 g ai/ha, 0 to 100 scale (0 no effect, 100 complete control), read-out: Plant response rating, Morningglory): 10%
pest or weed control at 500 g/ha (morningglory; Ipomoea, pre-emergence, 240 h, preemergence, 500 g ai/ha, 0 to 100 scale, read-out: Plant response rating, Morningglory): 0%
Morningglory plant response rating (morningglory; 125 g ai/ha): 0
pest or weed control at 125 g/ha (crabgrass, large; Digitaria sanguinalis, post-emergence, 240 h, Postemergence, 125 g ai/ha, 0 to 100 scale, 0 no effect, 100 complete control, read-out: Plant response rating, Crabgrass, Large): 80%
pest or weed control at 500 g/ha (crabgrass, large; Digitaria sanguinalis, post-emergence, 240 h, Postemergence, 500 g ai/ha, 0 to 100 scale (0 no effect, 100 complete control), read-out: Plant response rating, Crabgrass, Large): 90%
pest or weed control at 500 g/ha (crabgrass, large; Digitaria sanguinalis, pre-emergence, 240 h, preemergence, 500 g ai/ha, 0 to 100 scale, read-out: Plant response rating, Crabgrass, Large): 90%
Crabgrass, Large plant response rating (crabgrass, large; 125 g ai/ha): 90
Plant response rating, Kochia (kochia [1]; [5]): 5
Plant response rating, Kochia (kochia [1]; [6]): 55
Plant response rating, Kochia (kochia [1]; [7]): 55
